61 compounds from ChEMBL document CHEMBL2057073, “Synthesis and structure-activity relationship studies of 1,3-disubstituted 2-propanols as BACE-1 inhibitors” (Bioorg Med Chem Lett, 2012) can be followed below.

For assay [1], the target named is T1, Beta-secretase 1 (Homo sapiens, UniProt P56817). The assay can be described thus: Inhibition of BACE1 at 100 uM by FRET assay.
In assay [2] the target is T1, Beta-secretase 1. The assay can be described thus: Inhibition of BACE1 at 50 uM by FRET assay.
For assay [3], the target named is T1, Beta-secretase 1. The assay can be described thus: Inhibition of BACE1 at 25 uM by FRET assay.
Assay [4] deals with T1, Beta-secretase 1. The assay can be described thus: Inhibition of BACE1 by FRET assay.
Assay [5] concerns the target Cathepsin D (Homo sapiens, UniProt P07339). The assay can be described thus: Inhibition of cathepsin D by FRET assay.

Where only a bound is given, the exact number is not on record here.

T1 sequence (P56817 whole entry): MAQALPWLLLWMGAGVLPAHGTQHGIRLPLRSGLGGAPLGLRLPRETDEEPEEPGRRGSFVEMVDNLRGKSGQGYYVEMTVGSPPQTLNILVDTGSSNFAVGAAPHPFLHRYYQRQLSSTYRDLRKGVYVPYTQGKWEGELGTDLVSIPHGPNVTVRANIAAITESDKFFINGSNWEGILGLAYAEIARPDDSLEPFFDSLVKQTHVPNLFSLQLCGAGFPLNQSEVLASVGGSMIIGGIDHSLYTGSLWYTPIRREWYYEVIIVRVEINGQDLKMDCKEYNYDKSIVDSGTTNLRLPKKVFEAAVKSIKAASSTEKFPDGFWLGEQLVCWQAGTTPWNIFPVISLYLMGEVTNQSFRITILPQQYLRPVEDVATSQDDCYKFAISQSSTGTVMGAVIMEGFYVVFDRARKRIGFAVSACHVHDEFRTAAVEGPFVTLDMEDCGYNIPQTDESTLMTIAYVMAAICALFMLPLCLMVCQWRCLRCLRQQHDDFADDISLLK
Chain of Cathepsin D (P07339 65-162 limits assumed): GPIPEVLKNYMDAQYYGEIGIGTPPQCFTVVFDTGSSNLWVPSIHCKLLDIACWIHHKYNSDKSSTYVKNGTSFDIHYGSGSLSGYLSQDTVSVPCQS
Chain of Cathepsin D (P07339 169-412 limits assumed): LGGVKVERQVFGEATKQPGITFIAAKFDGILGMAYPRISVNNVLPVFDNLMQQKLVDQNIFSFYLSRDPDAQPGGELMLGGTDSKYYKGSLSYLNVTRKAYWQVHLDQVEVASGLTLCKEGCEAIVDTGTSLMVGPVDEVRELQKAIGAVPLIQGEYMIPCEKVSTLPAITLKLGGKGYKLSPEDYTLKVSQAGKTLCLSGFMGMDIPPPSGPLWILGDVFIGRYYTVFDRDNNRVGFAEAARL

For `COc1ccc(SCC(O)Cn2c3ccccc3c3ccccc32)c(OC)c1` (stereo not given), the inhibition (usually the relative decrease from the control value, in per cent) in assay [1] was 80%; in assay [2], 69%; in assay [3], 22%.

With `COc1ccc(SCC(O)Cn2c(-c3ccccc3)cc3ccccc32)c(OC)c1` (stereo not given), the inhibition in assay [1] came out at 77%; in assay [2], 42%; in assay [3], 21%.

Consider `COc1ccc(SCC(O)Cn2ccc3ccccc32)c(OC)c1` (stereo not given), for which the inhibition amounted to 84% in assay [1], 76% in assay [2] and 43% in assay [3].

In the case of `OC(CSc1ccc2ccccc2c1)CSc1ccc2ccccc2c1`, the IC50 (commonly the concentration that inhibits the measured activity by half) in assay [4] is more than 30 µM.

`Oc1ccc(SCC(O)COc2ccc(Cc3ccccc3)cc2)cc1` (stereo not given): the results for the inhibition in assay [1], in assay [2] and in assay [3] were 94%, 100% and 85%, respectively. The IC50 in assay [4] was 10.7 µM.

As for `Cc1ccccc1SCC(O)Cn1c2c(c3ccccc31)CCC2` (stereo not given), the inhibition in assay [1] was 92%; in assay [2], 89%; in assay [3] it was 73%. In assay [4], the IC50 came to 21.4 µM.

As for `Oc1ccccc1SCC(O)COc1ccc(Cc2ccccc2)cc1` (stereo not given), the inhibition in assay [1] was 84%; in assay [2], 101%; in assay [3] it was 90%.

Take `COc1ccc(SCC(O)Cn2c3ccccc3c3ccccc32)cc1` (stereo not given): the results for the inhibition in assay [1], in assay [2] and in assay [3] were 88%, 72% and 37%, respectively.

As to `OC(CSc1ccccc1)Cn1c2c(c3ccccc31)CCC2` (stereo not given), the inhibition in assay [1] turned out to be 85%; in assay [2], 64%; in assay [3], 35%.

With `OC(CSCCCc1ccccc1)Cn1c2c(c3ccccc31)CCC2` (stereo not given), the inhibition stood at 96% in assay [1], 81% in assay [2] and 53% in assay [3].

Regarding `Oc1ccc(SCC(O)Cn2c(-c3ccccc3)cc3ccccc32)cc1` (stereo not given), the inhibition was 86% in assay [1], 77% in assay [2] and 72% in assay [3]. This compound also displayed an IC50 in assay [4] of 13.6 µM.

`O[C@@H](CSc1ccc2ccccc2c1)Cn1c2ccccc2c2ccccc21`: the IC50 was 7.98 µM in assay [4] and more than 300 µM in assay [5].

In the case of `OC(COc1ccc(Cc2ccccc2)cc1)CSc1ccccc1Cl` (stereo not given), the inhibition came out at 81% in assay [1], 73% in assay [2] and 62% in assay [3]. Also, the half-maximal inhibitory concentration (IC50) is 9.6 µM in assay [4] and more than 300 µM in assay [5].

`OC(CSc1ccc(Cl)cc1)Cn1c(-c2ccccc2)cc2ccccc21` (stereo not given): the inhibition in assay [1] turned out to be 82%; in assay [2], 69%; in assay [3], 56%.

`CCc1cccc2ccn(CC(O)CSc3ccc(F)cc3)c12` (stereo not given): the results for the inhibition in assay [1], in assay [2] and in assay [3] were 86%, 41% and 48%, respectively.

On to `OC(CSc1ccccc1)Cn1c2ccccc2c2ccccc21` (stereo not given), for which the inhibition stood at 86% in assay [1], 85% in assay [2] and 79% in assay [3].

Consider `c1ccc2cc(SCCCn3c4ccccc4c4ccccc43)ccc2c1`, for which the concentration for half-maximal inhibition (IC50) was 7.52 µM in assay [4] and more than 300 µM in assay [5].

For the compound `c1ccc2cc(SCC(Cn3c4ccccc4c4ccccc43)N3CCNCC3)ccc2c1` (racemic), the IC50 in assay [4] was more than 50 µM.

In the case of `OC(CCn1c2ccccc2c2ccccc21)Cn1c2ccccc2c2ccccc21` (stereo not given), the concentration for half-maximal inhibition (IC50) in assay [4] was more than 100 µM.

As to `OC(CSc1ccccc1F)Cn1c2c(c3ccccc31)CCC2` (stereo not given), the inhibition in assay [1] worked out at 94%; in assay [2] it was 82%; in assay [3] it was 51%.

As for `COc1ccc(SCC(O)Cn2c(C)c(C)c3ccccc32)cc1` (stereo not given), the inhibition in assay [1] came out at 96%; in assay [2], 70%; in assay [3], 26%.

As for `Cc1ccc(SCC(O)Cn2c(-c3ccccc3)cc3ccccc32)cc1` (stereo not given), the inhibition in assay [1] amounted to 76%; in assay [2], 65%; in assay [3], 45%.

`NCCNC(CSc1ccc2ccccc2c1)Cn1c2ccccc2c2ccccc21` (racemic): the results for the IC50 in assay [4] and in assay [5] were 7.38 µM and more than 300 µM, respectively.

As to `CCc1cccc2ccn(CC(O)CSc3ccccc3Cl)c12` (stereo not given), the inhibition in assay [1] was 99%; in assay [2] it was 87%; in assay [3], 65%. Further, the IC50 is 7.52 µM in assay [4] and more than 300 µM in assay [5].

In the case of `COc1ccc(SCC(O)Cn2c3c(c4ccccc42)CCC3)cc1` (stereo not given), the inhibition is 85% in assay [1], 74% in assay [2] and 27% in assay [3].

As to `Cc1c(C)n(CC(O)CSc2nnnn2-c2ccccc2)c2ccccc12` (stereo not given), the inhibition in assay [1] worked out at 93%; in assay [2], 64%; in assay [3], 31%.

Turning to `OC(CSc1ccccc1F)Cn1c2ccccc2c2ccccc21` (stereo not given), the inhibition in assay [1] came out at 89%; in assay [2] it was 84%; in assay [3], 67%. The half-maximal inhibitory concentration (IC50) in assay [4] was 5.36 µM; in assay [5], more than 300 µM.

On to `COc1ccc(SCC(O)Cn2c(C)c(C)c3ccccc32)c(OC)c1` (stereo not given), for which the inhibition in assay [1] amounted to 83%; in assay [2] it was 37%; in assay [3], 0%.

For `CCc1ccc(SCC(O)Cn2ccc3cccc(CC)c32)cc1` (stereo not given), the inhibition in assay [1] is 92%; in assay [2] it was 61%; in assay [3], 38%.

Turning to `CCc1cccc2ccn(CC(O)CSc3ccc(OC)cc3)c12` (stereo not given), the inhibition in assay [1] came to 83%; in assay [2], 54%; in assay [3] it was 11%.

Consider `OC(CSc1nnnn1-c1ccccc1)Cn1c2c(c3ccccc31)CCC2` (stereo not given), for which the inhibition worked out at 87% in assay [1], 76% in assay [2] and 37% in assay [3].

The compound `NC(CSc1ccc2ccccc2c1)Cn1c2ccccc2c2ccccc21` (racemic) yielded an IC50 in assay [4] of 15.7 µM.

In assay [4], `OC(CSc1ccc2ccccc2c1)Cn1ccc2ccccc21` (stereo not given) yielded an IC50 of 10.5 µM.

Turning to `OC(CCn1c2ccccc2c2ccccc21)CSc1ccc2ccccc2c1` (stereo not given), the concentration for half-maximal inhibition (IC50) in assay [4] is 4.31 µM; in assay [5], more than 300 µM.

As to `Cc1ccc(SCC(O)Cn2c3c(c4ccccc42)CCC3)cc1` (stereo not given), the figures for the inhibition in assay [1], in assay [2] and in assay [3] were 91%, 81% and 55%, respectively.

Consider `CCc1cccc2ccn(CC(O)CSc3cc(C)cc(C)c3)c12` (stereo not given), for which the inhibition in assay [1] worked out at 90%; in assay [2], 71%; in assay [3] it was 40%.

Consider `CCc1ccccc1SCC(O)Cn1c(-c2ccccc2)cc2ccccc21` (stereo not given), for which the inhibition in assay [1] was found to be 80%; in assay [2], 72%; in assay [3] it was 60%. Further, the IC50 in assay [4] worked out at 10.3 µM.

For `OC(CCSc1ccc2ccccc2c1)Cn1c2ccccc2c2ccccc21` (stereo not given), the figures for the 50% inhibitory concentration (IC50) in assay [4] and in assay [5] were 6.74 µM and more than 300 µM, respectively.

`OC(CSc1ccc2ccccc2c1)C(O)Cn1c2ccccc2c2ccccc21` (stereo not given): 10.1 µM corresponded to half-maximal inhibition in assay [4] (IC50).

With `OC(CSc1ccccc1F)Cn1c2c(c3ccccc31)CCCC2` (stereo not given), the inhibition in assay [1] amounted to 95%; in assay [2] it was 86%; in assay [3], 68%. In assay [4], this compound had a 50% inhibitory concentration (IC50) of 11 µM.

For the compound `COc1ccc(SCC(O)Cn2c3c(c4ccccc42)CCCC3)cc1` (stereo not given), the inhibition in assay [1] was 87%; in assay [2] it was 90%; in assay [3] it was 58%. The same compound registered a half-maximal inhibitory concentration (IC50) in assay [4] of 15.2 µM.

For the compound `OC(CSc1ccc(F)cc1)Cn1c2c(c3ccccc31)CCCC2` (stereo not given), the values for the inhibition in assay [1], in assay [2] and in assay [3] were 87%, 92% and 56%, respectively.

Regarding `OC(CSc1ccc2ccccc2c1)Cn1c2c(c3ccccc31)CCC2` (stereo not given), the inhibition in assay [1] was found to be 87%; in assay [2], 80%; in assay [3], 43%.

In the case of `OC(Cn1c2ccccc2c2ccccc21)C(O)Cn1c2ccccc2c2ccccc21` (stereo not given), the half-inhibitory concentration (IC50) in assay [4] was 8.82 µM; in assay [5], more than 300 µM.

For `CCc1cccc2ccn(CC(O)CSc3nnnn3-c3ccccc3)c12` (stereo not given), the results for the inhibition in assay [1] and in assay [2] were 86% and 46%, respectively.

In the case of `Cc1c(C)n(CC(O)CSc2ccccc2Cl)c2ccccc12` (stereo not given), the results for the inhibition in assay [1], in assay [2] and in assay [3] were 100%, 93% and 68%, respectively.

Regarding `CCc1ccc(SCC(O)Cn2c(-c3ccccc3)cc3ccccc32)cc1` (stereo not given), the inhibition in assay [1] stood at 79%; in assay [2], 78%; in assay [3] it was 42%.

As to `Nc1cccc(SCC(O)Cn2c3ccccc3c3ccccc32)c1` (stereo not given), the values for the inhibition in assay [1], in assay [2] and in assay [3] were 100%, 87% and 69%, respectively. In assay [4], the concentration for half-maximal inhibition (IC50) is 36.1 µM.

With `CCc1ccccc1SCC(O)CN(Cc1ccccc1)Cc1ccccc1` (stereo not given), the inhibition in assay [1] is 54%.

`O=C(CSc1ccc2ccccc2c1)Cn1c2ccccc2c2ccccc21` displayed an IC50 in assay [4] of more than 80 µM.

Regarding `O[C@H](CSc1ccc2ccccc2c1)Cn1c2ccccc2c2ccccc21`, the figures for the IC50 in assay [4] and in assay [5] were 5.39 µM and more than 300 µM, respectively.

As to `OC(CSc1ccc(F)cc1)Cn1ccc2ccccc21` (stereo not given), the inhibition in assay [1] turned out to be 54%.

As to `COc1ccc(SCC(O)CN2CCc3cc(OC)c(OC)cc3C2c2ccccc2)c(OC)c1` (stereo not given), in assay [1], the inhibition is 24%.

On to `COc1cc2c(cc1OC)C(c1ccccc1)N(CC(O)CSc1ccc(C)cc1)CC2` (stereo not given), for which the inhibition in assay [1] is 11%.

In the case of `Cc1c(C)n(CC(O)CSc2ccc3ccccc3c2)c2ccccc12` (stereo not given), the inhibition in assay [1] came to 87%.

For `Cc1ccccc1SCC(O)CN1CCC(C(O)(c2ccccc2)c2ccccc2)CC1` (stereo not given), the inhibition in assay [1] was determined as 5%.

With `OC(CSc1nnnn1-c1ccccc1)CN1CCCCCC1` (stereo not given), the inhibition in assay [1] was found to be 0%.

For `Oc1ccccc1SCC(O)COc1ccc(-c2ccccc2)cc1` (stereo not given), in assay [1], the inhibition was determined as 33%.

As for `OC(CSc1nnnn1-c1ccccc1)Cn1c2ccccc2c2ccccc21` (stereo not given), the inhibition in assay [1] worked out at 64%.

On to `Oc1ccccc1SCC(O)Cn1c(-c2ccccc2)cc2ccccc21` (stereo not given), for which the inhibition in assay [1] is 86%; in assay [2], 102%; in assay [3] it was 87%. This compound also showed a half-inhibitory concentration (IC50) in assay [4] of 25.4 µM.

For the compound `Cc1ccc(SCC(O)CN2CCC(C(O)(c3ccccc3)c3ccccc3)CC2)cc1` (stereo not given), the inhibition in assay [1] turned out to be 1%.
